The values below come from US11040981B2, “Pyrrolotriazine compounds and methods of inhibiting TAM kinases” (Syros Pharmaceuticals, Inc., priority 2017, dated 2021).

By IC50 is commonly meant the concentration needed to halve the response being measured.

The target in assay [1] is T1, TYRO3 (Homo sapiens, UniProt Q06418).
T1 sequence (Q06418 41-890): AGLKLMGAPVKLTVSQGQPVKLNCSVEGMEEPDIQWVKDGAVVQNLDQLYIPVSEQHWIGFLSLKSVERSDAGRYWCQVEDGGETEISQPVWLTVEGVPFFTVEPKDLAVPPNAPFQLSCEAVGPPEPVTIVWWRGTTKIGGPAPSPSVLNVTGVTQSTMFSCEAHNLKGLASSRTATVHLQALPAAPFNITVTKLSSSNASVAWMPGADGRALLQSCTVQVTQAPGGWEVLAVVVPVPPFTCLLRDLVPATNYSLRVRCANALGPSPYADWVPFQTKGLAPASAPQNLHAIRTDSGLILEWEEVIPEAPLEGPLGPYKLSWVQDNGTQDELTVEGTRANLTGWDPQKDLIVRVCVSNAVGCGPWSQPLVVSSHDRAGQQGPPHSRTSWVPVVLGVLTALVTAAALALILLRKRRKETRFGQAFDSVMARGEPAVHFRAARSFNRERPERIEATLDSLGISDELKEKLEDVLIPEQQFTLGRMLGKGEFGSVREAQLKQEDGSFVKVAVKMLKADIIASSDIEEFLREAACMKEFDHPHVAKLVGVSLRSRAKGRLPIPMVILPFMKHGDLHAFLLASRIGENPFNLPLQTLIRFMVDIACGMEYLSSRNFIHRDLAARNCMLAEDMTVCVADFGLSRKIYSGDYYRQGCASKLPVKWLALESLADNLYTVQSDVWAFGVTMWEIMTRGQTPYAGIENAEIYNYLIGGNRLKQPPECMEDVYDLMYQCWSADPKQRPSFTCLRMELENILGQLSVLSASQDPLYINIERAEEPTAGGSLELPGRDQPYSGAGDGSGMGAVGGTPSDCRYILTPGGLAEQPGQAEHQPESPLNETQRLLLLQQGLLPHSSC
Description: TR-FRET kinase activity assay, TYRO3. It is filed as biochemical. To be noted: ATP at Km, 60 minutes. The gist of the method:
(§1)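 Enzyme, fluorescent peptide substrate and compound were mixed, and the reaction was started with ATP at each kinase's Km, in 50 mM HEPES pH 7.5, 10 mM MgCl2, 1 mM EGTA, 0.01% Brij 35, 1 mM DTT at RT. After 60 minutes EDTA quench, Eu-labelled phospho-specific antibody was added for 30 minutes, and IC50 was derived from TR-FRET signal loss.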
For orientation: TR-FRET usually uses a lanthanide donor and a delayed reading to cut background.

Assay [2] concerns the target T2, MERTK (Homo sapiens, UniProt Q12866).
T2 sequence (Q12866 21-999): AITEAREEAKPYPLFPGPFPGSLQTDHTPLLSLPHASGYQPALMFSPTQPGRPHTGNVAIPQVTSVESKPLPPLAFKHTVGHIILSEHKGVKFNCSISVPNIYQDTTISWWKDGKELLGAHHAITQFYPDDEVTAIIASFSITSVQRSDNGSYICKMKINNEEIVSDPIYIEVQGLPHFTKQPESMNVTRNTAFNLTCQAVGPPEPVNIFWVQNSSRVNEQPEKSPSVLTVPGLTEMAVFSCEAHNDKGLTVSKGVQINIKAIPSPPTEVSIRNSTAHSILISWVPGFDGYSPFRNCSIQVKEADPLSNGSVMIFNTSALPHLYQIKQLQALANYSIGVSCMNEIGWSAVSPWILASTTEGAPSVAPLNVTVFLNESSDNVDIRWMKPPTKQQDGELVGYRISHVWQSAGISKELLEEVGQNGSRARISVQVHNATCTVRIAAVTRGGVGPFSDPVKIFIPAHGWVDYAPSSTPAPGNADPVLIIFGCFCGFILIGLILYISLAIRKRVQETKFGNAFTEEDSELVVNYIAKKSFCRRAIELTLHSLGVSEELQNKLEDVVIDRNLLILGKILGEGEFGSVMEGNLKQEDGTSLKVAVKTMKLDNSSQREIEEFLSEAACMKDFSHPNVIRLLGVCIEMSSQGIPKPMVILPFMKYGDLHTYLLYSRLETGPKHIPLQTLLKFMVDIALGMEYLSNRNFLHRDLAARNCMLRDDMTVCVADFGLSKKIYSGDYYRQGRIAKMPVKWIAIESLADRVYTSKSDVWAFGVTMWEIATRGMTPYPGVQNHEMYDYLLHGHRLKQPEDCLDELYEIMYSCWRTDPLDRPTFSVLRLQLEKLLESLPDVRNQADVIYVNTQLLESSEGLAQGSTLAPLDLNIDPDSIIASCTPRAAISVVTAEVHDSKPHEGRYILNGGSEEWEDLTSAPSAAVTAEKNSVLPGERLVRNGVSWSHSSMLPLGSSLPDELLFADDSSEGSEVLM
In words: TR-FRET kinase activity assay, MERTK. Format: biochemical. The following applies: for IC50: TR-FRET activity assay, ATP at Km, 60 minutes, read-out: Mer IC50. The procedure, abridged: as §1

Setting [3] is: ratio calculated as FLT3 IC50/Mer IC50.
Setting [4] is: ratio of Mer to FLT3: FLT3 IC50/Mer IC50.

Take `COC[C@H](C)Nc1ncc2c(CC#N)cc([C@H]3CC[C@H](O)CC3)n2n1` [Compound 497]: the IC50 in assay [1] and in assay [2] was ≤ 100 nM throughout. The “FLT3/Mer ratio (FLT3 IC50/Mer IC50)” value in assay [2] (setting [3]) is “+++ (“+++” represents a ratio of >100)”.
With `COC[C@H](C)Nc1ncc2c(C3=C[C@H]4CC[C@@H](C3)N4)cc([C@H]3CC[C@H](O)CC3)n2n1` [Compound 467], the IC50 in assay [1] and in assay [2] was ≤ 100 nM throughout. Besides, the “FLT3/Mer ratio (FLT3 IC50/Mer IC50)” value in assay [2] (setting [3]) is given as “+++ (“+++” represents a ratio of >100)”.
For the molecule `COC[C@H](C)Nc1ncc2c(C3=CCNCC3)cc([C@H]3CC[C@H](O)CC3)n2n1` [Compound 443], the IC50 in assay [1] and in assay [2] was ≤ 100 nM throughout. For the same molecule, the “FLT3/Mer ratio (FLT3 IC50/Mer IC50)” value in assay [2] (setting [3]) is given as “+++ (“+++” represents a ratio of >100)”.
`COC[C@H](C)Nc1ncc2c(-c3ccnc(N4CCOC4=O)c3)cc([C@H]3CC[C@H](O)CC3)n2n1` [Compound 438]: the IC50 in assay [1] and in assay [2] was ≤ 100 nM each time. In addition, the “FLT3/Mer ratio (FLT3 IC50/Mer IC50)” value in assay [2] (setting [3]) was “+++ (“+++” represents a ratio of >100)”.
Regarding `COC[C@H](C)Nc1ncc2c(-c3cnn([C@@H]4CCN(C)C4=O)c3)cc([C@H]3CC[C@H](O)CC3)n2n1` [Compound 471], the IC50 in assay [1] and in assay [2] was ≤ 100 nM in each case. For the same molecule, in assay [2] (setting [3]), the “FLT3/Mer ratio (FLT3 IC50/Mer IC50)” value is on record as “+++ (“+++” represents a ratio of >100)”.
`COC[C@H](C)Nc1ncc2c(C3=C[C@@H]4CC[C@H](C3)N4C(=O)N3CCOCC3)cc([C@H]3CC[C@H](O)CC3)n2n1` [Compound 463]: the IC50 in assay [1] and in assay [2] was ≤ 100 nM in each case. Further, the “FLT3/Mer ratio (FLT3 IC50/Mer IC50)” value in assay [2] (setting [3]) is on record as “+++ (“+++” represents a ratio of >100)”.
For `COC[C@H](C)Nc1ncc2c(C3=C[C@H]4CCC(C3)N4C(C)=O)cc([C@H]3CC[C@H](O)CC3)n2n1` [Compound 468], the IC50 in assay [1] and in assay [2] was ≤ 100 nM throughout. In addition, the “FLT3/Mer ratio (FLT3 IC50/Mer IC50)” value in assay [2] (setting [3]) is “+++ (“+++” represents a ratio of >100)”.
On to `COC[C@H](C)Nc1ncc2c(-c3ccnc(N4CCC5(CCO5)CC4)c3)cc([C@H]3CC[C@H](O)CC3)n2n1` [Compound 430], for which the IC50 in assay [1] and in assay [2] was ≤ 100 nM each time. Also, the “FLT3/Mer ratio (FLT3 IC50/Mer IC50)” value in assay [2] (setting [3]) is “+++ (“+++” represents a ratio of >100)”.
Take `COC[C@H](C)Nc1ncc2c(-c3conc3C)cc([C@H]3CC[C@H](O)CC3)n2n1` [Compound 508]: the IC50 in assay [1] and in assay [2] was ≤ 100 nM in each case. Besides, the “FLT3/Mer ratio (FLT3 IC50/Mer IC50)” value in assay [2] (setting [3]) is “+++ (“+++” represents a ratio of >100)”.
On to `COC[C@H](C)Nc1ncc2c(-c3cnn(C(C)(C)C(=O)N4CCC(C)(O)CC4)c3)cc([C@H]3CC[C@H](O)CC3)n2n1` [Compound 450], for which the IC50 in assay [1] and in assay [2] was ≤ 100 nM throughout. For the same molecule, the “FLT3/Mer ratio (FLT3 IC50/Mer IC50)” value in assay [2] (setting [3]) is reported as “+++ (“+++” represents a ratio of >100)”.
For `CC[C@H](C)Nc1ncc2c(C3CCOCC3)cc([C@H]3CC[C@H](O)CC3)n2n1` [Compound 129, (trans)-4-(2-((S)-sec-butylamino)-5-(tetrahydro-2H-pyran-4-yl)pyrrolo[2,1-f][1,2,4]triazin-7-yl)cyclohexanol], the IC50 in assay [1] and in assay [2] was ≤ 100 nM in each case. Also, the “FLT3/Mer ratio (FLT3 IC50/Mer IC50)” value in assay [2] (setting [4]) is “+++ (“+++” represents a ratio of >100)”.
On to `COC[C@H](C)Nc1ncc2c(-c3ccnc(F)c3)cc([C@H]3CC[C@H](O)CC3)n2n1` [Compound 505], for which the IC50 in assay [1] and in assay [2] was ≤ 100 nM throughout. In assay [2] (setting [3]), the “FLT3/Mer ratio (FLT3 IC50/Mer IC50)” value is recorded as “+++ (“+++” represents a ratio of >100)”.
On to `COC[C@H](C)Nc1ncc2c(-c3cccc(C4CCc5nc(C)[nH]c5C4)c3)cc([C@H]3CC[C@H](O)CC3)n2n1` (stereo partly drawn) [Compound 498], for which the IC50 in assay [1] and in assay [2] was ≤ 100 nM throughout. The “FLT3/Mer ratio (FLT3 IC50/Mer IC50)” value in assay [2] (setting [3]) was “+++ (“+++” represents a ratio of >100)”.
In the case of `C[C@@H](COC(F)F)Nc1ncc2c(-c3cnn(CCS(C)(=O)=O)c3)cc([C@H]3CC[C@H](O)CC3)n2n1` [Compound 436], the IC50 in assay [1] and in assay [2] was ≤ 100 nM throughout. Further, the “FLT3/Mer ratio (FLT3 IC50/Mer IC50)” value in assay [2] (setting [3]) was “+++ (“+++” represents a ratio of >100)”.
With `COC[C@H](C)Nc1ncc2c(-c3cnn(C(C)(C)CN4CCOCC4)c3)cc([C@H]3CC[C@H](O)CC3)n2n1` [Compound 459], the 50% inhibitory concentration (IC50) in assay [1] and in assay [2] was ≤ 100 nM throughout. The “FLT3/Mer ratio (FLT3 IC50/Mer IC50)” value in assay [2] (setting [3]) was “+++ (“+++” represents a ratio of >100)”.
As for `CC[C@H](C)Nc1ncc2c(-c3ccc(CN4CCN(C)CC4)cc3)cc([C@H]3CC[C@](C)(O)CC3)n2n1` (relative stereo) [Compound 132, (trans)-4-(2-((S)-sec-butylamino)-5-(4-((4-methylpiperazin-1-yl)methyl)phenyl)pyrrolo[2,1-f][1,2,4]triazin-7-yl)-1-methylcyclohexanol], the IC50 in assay [1] and in assay [2] was ≤ 100 nM in each case. The “FLT3/Mer ratio (FLT3 IC50/Mer IC50)” value in assay [2] (setting [4]) is “++ (“++” represents a ratio of between 10 and 100)”.
With `COC[C@H](C)Nc1ncc2c(-c3ccnc(N4CCc5nc(C)sc5C4)c3)cc([C@H]3CC[C@H](O)CC3)n2n1` [Compound 509], the IC50 in assay [1] and in assay [2] was ≤ 100 nM in each case. Besides, in assay [2] (setting [3]), the “FLT3/Mer ratio (FLT3 IC50/Mer IC50)” value is listed as “+++ (“+++” represents a ratio of >100)”.
For the molecule `CNS(=O)(=O)c1ccc(-c2cc([C@H]3CC[C@H](O)CC3)n3nc(N[C@@H](C)COC(F)F)ncc23)cn1` [Compound 424], the IC50 in assay [1] and in assay [2] was ≤ 100 nM throughout. Moreover, the “FLT3/Mer ratio (FLT3 IC50/Mer IC50)” value in assay [2] (setting [3]) is “+++ (“+++” represents a ratio of >100)”.
With `COC[C@H](C)Nc1ncc2c(-c3cnn(C[C@@H]4CC(=O)N(C)C4)c3)cc([C@H]3CC[C@H](O)CC3)n2n1` [Compound 473], the IC50 in assay [1] and in assay [2] was ≤ 100 nM throughout. Besides, in assay [2] (setting [3]), the “FLT3/Mer ratio (FLT3 IC50/Mer IC50)” value is listed as “+++ (“+++” represents a ratio of >100)”.
For the molecule `COC[C@H](C)Nc1ncc2c(-c3cnn([C@H]4CCN(C)C4=O)c3)cc([C@H]3CC[C@H](O)CC3)n2n1` [Compound 470], the IC50 in assay [1] and in assay [2] was ≤ 100 nM in each case. Moreover, the “FLT3/Mer ratio (FLT3 IC50/Mer IC50)” value in assay [2] (setting [3]) is recorded as “+++ (“+++” represents a ratio of >100)”.
On to `COC[C@H](C)Nc1ncc2c(C3=C[C@H]4CC[C@@H](C3)N4C(=O)N3CCOCC3)cc([C@H]3CC[C@H](O)CC3)n2n1` [Compound 469], for which the IC50 in assay [1] and in assay [2] was ≤ 100 nM throughout. Also, the “FLT3/Mer ratio (FLT3 IC50/Mer IC50)” value in assay [2] (setting [3]) was “+++ (“+++” represents a ratio of >100)”.
On to `COC[C@H](C)Nc1ncc2c(C3=C[C@@H]4CC[C@H](C3)N4CC(F)(F)F)cc([C@H]3CC[C@H](O)CC3)n2n1` [Compound 485], for which the IC50 in assay [1] and in assay [2] was ≤ 100 nM throughout. Besides, the “FLT3/Mer ratio (FLT3 IC50/Mer IC50)” value in assay [2] (setting [3]) was “+++ (“+++” represents a ratio of >100)”.
